Test results as given in BindingDB's records for patent US10676479 (Novartis AG, 2020).

Target: Polycomb protein EED (Homo sapiens, UniProt O75530)
Experiment: EED-H3K27Me3 Peptide Competition Binding Assay by AlphaScreen
Description: Then 4 μL of detection beads mix was added to the plate and incubate in the dark at the rt for 1 h. The final concentration of donor and acceptor beads was 10 μg/mL for each. […] The data were then fit to a dose response equation using the program Helios (Novartis) to get the IC50 values. […] Compounds were diluted as described in the preceding section, and the assay was performed by adding 12 μL of 10 nM biotin-miniPEG-His6 peptide in the above buffer and incubating for 20 min at rt prior to addition of the beads to 10 μg/mL each. The plates were then incubated for 1 h at rt in dark before being read on EnVison.

Sequence of Polycomb protein EED (O75530 whole entry): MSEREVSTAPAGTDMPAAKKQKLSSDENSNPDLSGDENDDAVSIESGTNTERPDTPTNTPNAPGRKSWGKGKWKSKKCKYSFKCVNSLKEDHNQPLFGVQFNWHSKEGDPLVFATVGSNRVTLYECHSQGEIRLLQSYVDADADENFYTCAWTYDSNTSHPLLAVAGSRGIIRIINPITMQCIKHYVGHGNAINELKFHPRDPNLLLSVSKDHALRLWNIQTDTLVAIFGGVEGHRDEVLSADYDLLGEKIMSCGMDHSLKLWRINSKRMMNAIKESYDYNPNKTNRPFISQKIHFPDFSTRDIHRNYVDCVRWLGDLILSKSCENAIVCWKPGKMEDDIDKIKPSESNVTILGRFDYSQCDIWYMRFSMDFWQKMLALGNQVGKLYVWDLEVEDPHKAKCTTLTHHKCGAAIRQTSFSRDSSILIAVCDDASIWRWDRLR

Q: `CCN1CCN(c2ccc(-c3cnc(NCc4c(F)ccc5c4CCO5)n4cnc(C#N)c34)cn2)CC1` [US10676479, Example 81] was tested. Which IC50 did it give?
A: 24.9 nM

Q: `Cc1ncccc1-c1cnc(NCc2c(F)ccc3c2CCO3)n2cnc(C(=O)NC3COC3)c12` [US10676479, Example 106] was tested. Which IC50 did it give?
A: 7 nM

Q: With `CS(=O)(=O)c1ccc(-c2cnc(NCc3c(F)ccc4c3CCO4)n3cnc(-c4ccccc4)c23)cc1` [US10676479, Example 110] as the molecule, how does the IC50 read?
A: 8.1 nM
